The values below come from PMC11112612, “Sulfonylureas exert antidiabetic action on adipocytes by inhibition of PPARγ serine 273 phosphorylation” (Molecular Metabolism, 2024).

The target in test [1] is T1, peroxisome proliferator-activated receptor γ (PPARγ) (Homo sapiens, UniProt P37231).
T1 construct: gene PPARG; recombinant PPARγ LBD
The test is described as follows: in vitro CDK5/P35 kinase assay on PPARγ LBD (ADP-Glo, phospho-Ser-273 Western blot); histone H1 phosphorylation not inhibited; PPRE luciferase in HEK293T. It counts as biochemical. (In general: ADP-Glo turns the ADP formed in a reaction into a luminescent signal.)

Test [2] concerns the target T1, peroxisome proliferator-activated receptor γ (PPARγ). As to the kind of experiment: in vitro CDK5/P35 kinase assay on PPARγ LBD (ADP-Glo, phospho-Ser-273 Western blot); histone H1 phosphorylation not inhibited; weak PPRE luciferase activation. It counts as biochemical.

SMILES strings stand for the structures.

T1 sequence (P37231 231-505 limits assumed): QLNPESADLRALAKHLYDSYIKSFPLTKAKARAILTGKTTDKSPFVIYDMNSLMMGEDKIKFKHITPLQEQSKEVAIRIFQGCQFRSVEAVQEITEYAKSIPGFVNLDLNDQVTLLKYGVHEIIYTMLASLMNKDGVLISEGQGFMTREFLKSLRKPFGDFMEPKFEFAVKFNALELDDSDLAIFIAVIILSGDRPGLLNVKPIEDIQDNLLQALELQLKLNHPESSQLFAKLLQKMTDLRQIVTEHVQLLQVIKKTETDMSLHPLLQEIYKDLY
T1 sequence (Q00535 whole entry partner, the tested form may be a part): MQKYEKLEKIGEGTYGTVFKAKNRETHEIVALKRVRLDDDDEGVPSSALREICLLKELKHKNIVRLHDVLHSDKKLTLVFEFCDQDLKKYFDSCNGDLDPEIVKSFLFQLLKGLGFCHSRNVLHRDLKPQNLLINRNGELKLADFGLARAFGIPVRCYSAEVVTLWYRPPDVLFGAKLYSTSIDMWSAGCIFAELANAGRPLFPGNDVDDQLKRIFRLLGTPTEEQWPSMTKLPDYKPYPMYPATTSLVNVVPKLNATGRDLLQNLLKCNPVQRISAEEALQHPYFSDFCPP
T1 sequence (Q15078 2-307 partner): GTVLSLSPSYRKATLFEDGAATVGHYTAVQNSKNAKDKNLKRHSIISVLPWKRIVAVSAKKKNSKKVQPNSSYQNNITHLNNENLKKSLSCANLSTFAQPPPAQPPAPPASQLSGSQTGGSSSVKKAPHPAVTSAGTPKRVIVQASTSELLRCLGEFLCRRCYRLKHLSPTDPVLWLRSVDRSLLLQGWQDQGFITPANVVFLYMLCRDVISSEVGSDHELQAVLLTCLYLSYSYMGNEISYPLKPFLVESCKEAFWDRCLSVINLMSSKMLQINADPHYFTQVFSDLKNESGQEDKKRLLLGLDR

Usually IC50 stands for the midpoint of a concentration-inhibition curve. A high value points to lower potency. Turning to `COc1ccc(Cl)cc1C(=O)NCCc1ccc(S(=O)(=O)NC(=O)NC2CCCCC2)cc1` [glibenclamide], in test [1], the midpoint of inhibition, the IC50, lay at 25 nM.
In turn, `CCC1=C(C)CN(C(=O)NCCc2ccc(S(=O)(=O)NC(=O)N[C@H]3CC[C@H](C)CC3)cc2)C1=O` [glimepiride] had an IC50 in test [2] of 378 nM.
